Source: EP3434287B1, “SHORT AND ULTRA-SHORT ANTIMICROBIAL LIPOPEPTIDES AND USE THEREOF” (Arta Peptidion S.r.l.s., priority 2017, dated 2019)
Converted amounts (≈) assume the structure as drawn. “And” between values parts separate entries of the source, which are not always exact repeats. Identical values can stand only once. Like-named read-outs stand apart in the source and are kept apart here. Values belong to the compound of their own block, whether it stands above or below them. Residues, ends and D or L forms follow the SMILES beside them. *: point of attachment. Myristoyl = CCCCCCCCCCCCCC(=O)*; Lauroyl = CCCCCCCCCCCC(=O)*; Octanoyl = CCCCCCCC(=O)*; Hexanoyl = CCCCCC(=O)*

Tests used:
S.aureus = type: cell-based, S. aureus (ATCC 25923)
Description: (§1) The antimicrobial activity of a lipopeptide can be determined using a method known in the art, for example, the broth-dilution method. Essentially, this method involves the growth of a microorganism in a liquid medium until it reaches the logarithmic phase. The test lipopeptide is serially diluted with growth medium for the test bacterium in the wells of a multiwell plate. An optimal concentration of the microorganism is added to the wells containing the serially diluted lipopeptide. The plate is incubated in a thermostat at a temperature of 37° C. for a time sufficient for the microorganism to grow. The growth of the microorganism, evaluated in comparison with a negative control (microorganism grown in the absence of the lipopeptide), is determined by detecting the absorbance of the solution containing the bacterium, for example, at 605 nm.
(§2) The minimum inhibitory concentration values (MICs) of the lipopeptides and of conventional antibiotics were determined by the broth microdilution susceptibility test following the guidelines of the NCCLS with mid-log phase cultures. Serial two-fold dilutions of each peptide were prepared (final volume of 50 ul) in 96-well polypropylene microtiter plates (UNIFO, Treviso, Italy) with MH broth for bacteria and RPMI-1640 for fungi. Each dilution series included con-trol wells without peptide. A total of 50 ul of the adjusted inoculum (approximately 5 × 10^5 cells/ml for bacteria or 5 × 10^4 cells/ml for fungi, in the appropriate medium) was added to each well. To evaluate the MIC, microtiter plates with bacteria were incubated at 37° C overnight, while those with fungi were incubated at 30° C for 48 h. The fatty acid tested were: C6 (hexanoic),C8 (octanoic),C10 (decanoic),C12 (lauric),C14 (mystiric).
as §2, with “h.” for “h. The fatty acid tested were: C6 (hexanoic),C8 (octanoic),C10 (decanoic),C12 (lauric),C14 (mystiric).”

P.aeruginosa = type: cell-based, Pseudomonas aeruginosa ATCC 27853
Description: as §1, §2
as §2, with “control” for “con-trol”, “h.” for “h. The fatty acid tested were: C6 (hexanoic),C8 (octanoic),C10 (decanoic),C12 (lauric),C14 (mystiric).”

E.coli = type: cell-based, Escherichia coli ATCC 25922
Description: as §1, §2
as §2, with “control” for “con-trol”, “h.” for “h. The fatty acid tested were: C6 (hexanoic),C8 (octanoic),C10 (decanoic),C12 (lauric),C14 (mystiric).”

Cytotoxicity, MTT assay = type: cell-based; details: human, A549 cells (lung cancer epithelial cell line), treated for 24-72 h, read-out: LC50 (the source's name)
Description: In the present invention, cytotoxicity of the lipopeptides against a epithelial cell line was also determined, for example, A549 cells (lung cancer). Cells were cultured in the presence and in the absence of peptides and the damage to the membrane was evaluated by the vital stain MTT.
The colorimetric 3-(4,5-dimethylthiazol-2-yl)-2,5-diphenyl tetrazolium bromide (MTT) assay was performed to assess the metabolic activity of cells plated into 96-well culture plates (10 5 cell/well) and treated with 0.5-25 µM of in complete medium for 24-72 h. At the end of treatments, fullerenes containing medium were removed and replaced with fresh medium; for the cytotoxic assay, 20 µL stock MTT (5 mg/mL) was added to each well, and cells were then incubated for 4 hr at 37 °C. The converted MTT dye was solubilised with acidic isopropanol (0.04 N HCl in absolute isopropanol). Absorbance was measured at 540 nm and 630 nm using a microplate reader (Automated Microplate Reader EL311, BIO-TEK Instruments, Vermont, USA). All measurements were done in triplicate and each experiment was repeated at least three times.

C.albicans SC5314 = assay: MIC against filamentous yeast strain, broth microdilution susceptibility test (NCCLS); type: cell-based; details: RPMI-1640, 30° C for 48 h
Description: as §2, with “Italy)” for “Italy) with MH broth for bacteria and”, “h.” for “h. The fatty acid tested were: C6 (hexanoic),C8 (octanoic),C10 (decanoic),C12 (lauric),C14 (mystiric).”
(§3) This example was performed on two different strain of C.albicans. Both strain are human clinical isolate recovered from a patient with generalized candidiasis.

C. albicans ATCC 90029 = type: cell-based; details: RPMI-1640, 30° C for 48 h
Description: as §2, with “Italy)” for “Italy) with MH broth for bacteria and”, “h.” for “h. The fatty acid tested were: C6 (hexanoic),C8 (octanoic),C10 (decanoic),C12 (lauric),C14 (mystiric).”
as §3

[1] = Example 1, effect of fatty acid length on RFWR, MH broth, 37° C overnight

SMILES: CCCCCC(=O)N[C@@H](CCCNC(=N)N)C(=O)N[C@@H](Cc1ccccc1)C(=O)N[C@@H](Cc1c[nH]c2ccccc12)C(=O)N[C@@H](CCCNC(=N)N)C(N)=O [Lipopeptide 1] (Hexanoyl-RFWR-NH2)
Bacteria (MIC, ug/ml) S.aureus (S.aureus; [1]): >400 µg/mL | Bacteria (MIC, ug/ml) P.aeruginosa (P.aeruginosa; [1]): >400 µg/mL | Bacteria (MIC, ug/ml) E.coli (E.coli; [1]): >400 µg/mL

Bacteria (MIC, ug/ml) S.aureus (S.aureus): 100 µg/mL | Bacteria (MIC, ug/ml) P.aeruginosa (P.aeruginosa): 100 µg/mL | Bacteria (MIC, ug/ml) E.coli (E.coli): 100 µg/mL
SMILES: CCCCCCCC(=O)N[C@@H](CCCNC(=N)N)C(=O)N[C@@H](Cc1ccccc1)C(=O)N[C@@H](Cc1c[nH]c2ccccc12)C(=O)N[C@@H](CCCNC(=N)N)C(N)=O [Lipopeptide 2] (Octanoyl-RFWR-NH2)

Bacteria (MIC, ug/ml) S.aureus (S.aureus): 6.125 µg/mL | Bacteria (MIC, ug/ml) P.aeruginosa (P.aeruginosa): 50 µg/mL | Bacteria (MIC, ug/ml) E.coli (E.coli): 25 µg/mL
SMILES: CCCCCCCCCCCCCC(=O)N[C@@H](CCCNC(=N)N)C(=O)N[C@@H](Cc1ccccc1)C(=O)N[C@@H](Cc1c[nH]c2ccccc12)C(=O)N[C@@H](CCCNC(=N)N)C(N)=O [Lipopeptide 5] (Myristoyl-RFWR-NH2)

SMILES: CCCCCCCCCCCC(=O)N[C@@H](CCCNC(=N)N)C(=O)N[C@@H](Cc1ccccc1)C(=O)N[C@@H](Cc1c[nH]c2ccccc12)C(=O)N[C@@H](CCCNC(=N)N)C(N)=O [Lipopeptide 3, Lau-RFWR-NH2] (Lauroyl-RFWR-NH2)
MIC against S.aureus (S.aureus): 3.66 µM (≈ 3.09 µg/mL) | Bacteria (MIC, ug/ml) S.aureus (S.aureus; [1]): 12.5 µg/mL | MIC against P. aeruginosa (P.aeruginosa): 14.7 µM | Bacteria (MIC, ug/ml) P.aeruginosa (P.aeruginosa; [1]): 50 µg/mL | MIC against P. aeruginosa (P.aeruginosa; MH broth, 37° C overnight): 12.5 µg/mL | MIC against E. coli (E.coli): 7.39 µM | Bacteria (MIC, ug/ml) E.coli (E.coli; [1]): 25 µg/mL | CC50 (Cytotoxicity, MTT assay): 100 µg/mL and ~118 µM

Bacteria (MIC, ug/ml) S.aureus (S.aureus): >400 µg/mL | Bacteria (MIC, ug/ml) P.aeruginosa (P.aeruginosa): >400 µg/mL | Bacteria (MIC, ug/ml) E.coli (E.coli): >400 µg/mL
SMILES: N=C(N)NCCC[C@H](NC(=O)[C@H](Cc1c[nH]c2ccccc12)NC(=O)[C@H](Cc1ccccc1)NC(=O)[C@@H](N)CCCNC(=N)N)C(N)=O [Lipopeptide 0] (H-RFWR-NH2; N-terminus and C-terminus assumed)

SMILES: CCCCCCCCCCCC(=O)N[C@@H](CCCNC(=N)N)C(=O)N[C@@H](CCSC)C(=O)N[C@@H](Cc1c[nH]c2ccccc12)C(=O)N[C@@H](CCCNC(=N)N)C(N)=O [Lipopeptide 8, Lau-RMWR-NH2] (Lauroyl-RMWR-NH2)
MIC against C.albicans SC5314 strain (C.albicans SC5314): 12.5 µg/mL (≈ 15.1 µM)

SMILES: CCCCCCCCCCCC(=O)N[C@@H](CCCNC(=N)N)C(=O)N[C@@H](CCCNC(=N)N)C(=O)N[C@@H](Cc1ccccc1)C(=O)N[C@@H](Cc1c[nH]c2ccccc12)C(N)=O [Lipopeptide 14] (Lauroyl-RRFW-NH2)
MIC against P. aeruginosa (P.aeruginosa): 14.7 µM | MIC against P. aeruginosa (P.aeruginosa; MH broth, 37° C overnight): 12.5 µg/mL | MIC against E. coli (E.coli): 14.7 µM | MIC against E. coli (E.coli; MH broth, 37° C overnight): 12.5 µg/mL

SMILES: CCCCCCCCCCCC(=O)N[C@@H](CCCNC(=N)N)C(=O)N[C@H](C(=O)N[C@@H](Cc1c[nH]c2ccccc12)C(=O)N[C@@H](CCCNC(=N)N)C(N)=O)[C@@H](C)CC [Lipopeptide 6, Lau-RIWR-NH2] (Lauroyl-RIWR-NH2)
MIC against S.aureus (S.aureus): 1.77 µM (≈ 1.44 µg/mL) | MIC against P. aeruginosa (P.aeruginosa): 14.7 µM | MIC against P. aeruginosa (P.aeruginosa; MH broth, 37° C overnight): 12.5 µg/mL | MIC against E. coli (E.coli): 7.39 µM | MIC against C.albicans SC5314 strain (C.albicans SC5314): 12.5 µg/mL (≈ 15.4 µM) | CC50 (Cytotoxicity, MTT assay): 100 µg/mL and ~118 µM

MIC against C. albicans ATCC strain (C. albicans ATCC 90029): 1.56 µg/mL (≈ 1.35 µM)
SMILES: CCCCCCCCCCCC(=O)N[C@@H](CCCNC(=N)N)C(=O)N[C@@H](CCCNC(=N)N)C(=O)N[C@@H](Cc1ccccc1)C(=O)N[C@@H](Cc1c[nH]c2ccccc12)C(=O)N[C@@H](CCCNC(=N)N)C(=O)N[C@@H](CCCNC(=N)N)C(N)=O [Lipopeptide 16, Lau-RRFWRR-NH2] (Lauroyl-RRFWRR-NH2)

SMILES: CCCCCCCCCCCC(=O)N[C@@H](CCCNC(=N)N)C(=O)N[C@@H](Cc1ccccc1)C(=O)N[C@@H](Cc1c[nH]c2ccccc12)C(=O)N[C@@H](CCCNC(=N)N)C(N)=O [Lipopeptide 4] (Lauroyl-RFWR-NH2)
Bacteria (MIC, ug/ml) S.aureus (S.aureus): 3.125 µg/mL | Bacteria (MIC, ug/ml) P.aeruginosa (P.aeruginosa): 12.5 µg/mL | Bacteria (MIC, ug/ml) E.coli (E.coli): 12.5 µg/mL

SMILES: CCCCCCCCCCCC(=O)N[C@@H](CCCNC(=N)N)C(=O)N[C@@H](CCCNC(=N)N)C(=O)N[C@@H](Cc1ccccc1)C(=O)N[C@@H](Cc1c[nH]c2ccccc12)C(N)=O [Lipopeptide 14, Lau-RRFW-NH2] (Lauroyl-RRFW-NH2)
MIC against C.albicans SC5314 strain (C.albicans SC5314): 12.5 µg/mL (≈ 14.8 µM)
